Target: human RORγt LBD fused to the DNA binding domain of the GAL4 protein (Homo sapiens (Human), UniProt P51449)
Assay: RORγt (LBD) reporter assay in HEK293T cells
Type: cell-based
Conditions: for inhibition at 6 µM: HEK-293T, read-out: RORγt (LBD) Reporter Assay, % inhibition @ 6 μM, @ 6 μM

human RORγt LBD fused to the DNA binding domain of the GAL4 protein, sequence (P51449 258-518): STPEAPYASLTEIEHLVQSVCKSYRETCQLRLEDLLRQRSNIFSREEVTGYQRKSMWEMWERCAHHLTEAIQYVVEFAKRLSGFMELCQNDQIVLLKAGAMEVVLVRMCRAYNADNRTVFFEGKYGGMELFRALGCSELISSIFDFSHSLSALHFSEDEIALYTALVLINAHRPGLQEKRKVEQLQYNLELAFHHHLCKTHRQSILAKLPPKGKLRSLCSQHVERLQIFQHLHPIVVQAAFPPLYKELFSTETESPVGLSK

Row | Compound | inhibition at 6 µM [%] | RORγt (LBD) Reporter Assay, % inhibition @ 6 μM [%]
1 | COc1nc2ccc(C(O)(c3ccc(C)nc3C)c3cnnn3C)cc2c(Cl)c1CC1CCC(F)(F)CC1 (single isomer, unassigned) [Example 1b, (4-Chloro-3-((4,4-difluorocyclohexyl)methyl)-2-methoxyquinolin-6-yl)(2,6-dimethylpyridin-3-yl)(1-methyl-1H-1,2,3-triazol-5-yl)methanol] | 78 | –
2 | COc1nc2ccc(C(O)(c3ccc(C)nc3C)c3cnnn3C)cc2c(Cl)c1CC1CCC(F)(F)CC1 (single isomer, unassigned) [Example 1c, (4-Chloro-3-((4,4-difluorocyclohexyl)methyl)-2-methoxyquinolin-6-yl)(2,6-dimethylpyridin-3-yl)(1-methyl-1H-1,2,3-triazol-5-yl)methanol] | – | 66
3 | COc1nc2ccc(C(O)(c3cncn3C)C3CCN(C(C)=O)CC3)cc2c(Cl)c1CC1CCOCC1 (single isomer, unassigned) [Example 5b, 1-(4-((4-Chloro-2-methoxy-3-((tetrahydro-2H-pyran-4-yl)methyl)quinolin-6-yl)(hydroxy)(1-methyl-1H-imidazol-5-yl)methyl)piperidin-1-yl)ethanone] | 33 | –
4 | COc1nc2ccc(C(O)(c3cncn3C)C3CCN(C(C)=O)CC3)cc2c(Cl)c1CC1CCOCC1 (single isomer, unassigned) [Example 5c, 1-(4-((4-Chloro-2-methoxy-3-((tetrahydro-2H-pyran-4-yl)methyl)quinolin-6-yl)(hydroxy)(1-methyl-1H-imidazol-5-yl)methyl)piperidin-1-yl)ethanone] | – | 36
5 | COc1nc2ccc(C(O)(c3ccc(C)nc3C)c3cnnn3C)cc2c(Cl)c1C (single isomer, unassigned) [Example 12b, (4-Chloro-2-methoxy-3-methylquinolin-6-yl)(2,6-dimethylpyridin-3-yl)(1-methyl-1H-1,2,3-triazol-5-yl)methanol] | – | 23
6 | COc1nc2ccc(C(O)(c3ccc(C)nc3C)c3cnnn3C)cc2c(Cl)c1C (single isomer, unassigned) [Example 12c, (4-Chloro-2-methoxy-3-methylquinolin-6-yl)(2,6-dimethylpyridin-3-yl)(1-methyl-1H-1,2,3-triazol-5-yl)methanol] | – | 93
7 | COc1nc2ccc(C(O)(c3ccc(C)nc3C)c3cnnn3C)cc2c(Cl)c1CC1CC1 (single isomer, unassigned) [Example 14b, (4-Chloro-3-(cyclopropylmethyl)-2-methoxyquinolin-6-yl)(2,6-dimethylpyridin-3-yl)(1-methyl-1H-1,2,3-triazol-5-yl)methanol] | – | 72
8 | COc1nc2ccc(C(O)(c3ccc(C)nc3C)c3cnnn3C)cc2c(Cl)c1CC1CC1 (single isomer, unassigned) [Example 14c, (4-Chloro-3-(cyclopropylmethyl)-2-methoxyquinolin-6-yl)(2,6-dimethylpyridin-3-yl)(1-methyl-1H-1,2,3-triazol-5-yl)methanol] | – | 98
9 | COc1nc2ccc(C(O)(c3ccc(C)nc3C)c3cnnn3C)cc2c(Cl)c1OC1CCN(C)CC1 (single isomer, unassigned) [Example 65b, {4-Chloro-2-methoxy-3-[(1-methylpiperidin-4-yl)oxy]quinolin-6-yl}(2,6-dimethylpyridin-3-yl)(1-methyl-1H-1,2,3-triazol-5-yl)methanol] | 39 | –
10 | COc1nc2ccc(C(O)(c3ccc(C)nc3C)c3cnnn3C)cc2c(Cl)c1OCc1ncccn1 (single isomer, unassigned) [Example 66b, [4-Chloro-2-methoxy-3-(pyrimidin-2-ylmethoxy)quinolin-6-yl](2,6-dimethylpyridin-3-yl)(1-methyl-1H-1,2,3-triazol-5-yl)methanol] | -129 | –

Continued, values first:

Row | inhibition at 6 µM [%] | RORγt (LBD) Reporter Assay, % inhibition @ 6 μM [%] | Compound
11 | – | 54 | COc1nc2ccc(C(O)(c3ccc(C)nc3C)c3cnnn3C)cc2c(Cl)c1OCC1CC1 (single isomer, unassigned) [Example 68b, [4-Chloro-3-(cyclopropylmethoxy)-2-methoxyquinolin-6-yl](2,6-dimethylpyridin-3-yl)(1-methyl-1H-1,2,3-triazol-5-yl)methanol]
12 | – | 87 | COc1nc2ccc(C(O)(c3ccc(C)nc3C)c3cnnn3C)cc2c(Cl)c1OCC1CC1 (single isomer, unassigned) [Example 68c, [4-Chloro-3-(cyclopropylmethoxy)-2-methoxyquinolin-6-yl](2,6-dimethylpyridin-3-yl)(1-methyl-1H-1,2,3-triazol-5-yl)methanol]
13 | – | 37 | COc1nc2ccc(C(O)(c3ccc(C)nc3C)c3cnnn3C)cc2c(Cl)c1OC1CCOCC1 (single isomer, unassigned) [Example 69b, [4-Chloro-2-methoxy-3-(tetrahydro-2H-pyran-4-yloxy)quinolin-6-yl](2,6-dimethylpyridin-3-yl)(1-methyl-1H-1,2,3-triazol-5-yl)methanol]
14 | – | 61 | COc1nc2ccc(C(O)(c3ccc(C)nc3C)c3cnnn3C)cc2c(Cl)c1OC1CCOCC1 (single isomer, unassigned) [Example 69c, [4-Chloro-2-methoxy-3-(tetrahydro-2H-pyran-4-yloxy)quinolin-6-yl](2,6-dimethylpyridin-3-yl)(1-methyl-1H-1,2,3-triazol-5-yl)methanol]
15 | – | 53 | COc1nc2ccc(C(O)(c3ccc(C)nc3C)c3cnnn3C)cc2c(Cl)c1OCC1CC1(F)F (single isomer, unassigned) [Example 72b, {4-Chloro-3-[(2,2-difluorocyclopropyl)methoxy]-2-methoxyquinolin-6-yl}(2,6-dimethylpyridin-3-yl)(1-methyl-1H-1,2,3-triazol-5-yl)methanol]
16 | – | 86 | COc1nc2ccc(C(O)(c3ccc(C)nc3C)c3cnnn3C)cc2c(Cl)c1OCC1CC1(F)F (single isomer, unassigned) [Example 72c, {4-Chloro-3-[(2,2-difluorocyclopropyl)methoxy]-2-methoxyquinolin-6-yl}(2,6-dimethylpyridin-3-yl)(1-methyl-1H-1,2,3-triazol-5-yl)methanol]
17 | – | −15 | COc1nc2ccc(C(O)(c3ccc(C)nc3C)c3cnnn3C)cc2c(Cl)c1OCc1nccs1 (single isomer, unassigned) [Example 73b, [4-Chloro-2-methoxy-3-(1,3-thiazol-2-ylmethoxy)quinolin-6-yl](2,6-dimethylpyridin-3-yl)(1-methyl-1H-1,2,3-triazol-5-yl)methanol]
18 | – | −80 | COc1nc2ccc(C(O)(c3ccc(C)nc3C)c3cnnn3C)cc2c(Cl)c1OCc1nccs1 (single isomer, unassigned) [Example 73c, [4-Chloro-2-methoxy-3-(1,3-thiazol-2-ylmethoxy)quinolin-6-yl](2,6-dimethylpyridin-3-yl)(1-methyl-1H-1,2,3-triazol-5-yl)methanol]
19 | – | 30 | COCCOc1c(OC)nc2ccc(C(O)(c3ccc(C(F)(F)F)nc3)c3cncn3C)cc2c1Cl (single isomer, unassigned) [Example 79b, [4-Chloro-2-methoxy-3-(2-methoxyethoxy)quinolin-6-yl](1-methyl-1H-imidazol-5-yl)[6-(trifluoromethyl)pyridin-3-yl]methanol]
20 | – | −2.5 | COCCOc1c(OC)nc2ccc(C(O)(c3ccc(C(F)(F)F)nc3)c3cncn3C)cc2c1Cl (single isomer, unassigned) [Example 79c, [4-Chloro-2-methoxy-3-(2-methoxyethoxy)quinolin-6-yl](1-methyl-1H-imidazol-5-yl)[6-(trifluoromethyl)pyridin-3-yl]methanol]
21 | 90 | – | COc1nc2ccc(C(O)(c3ccnc(C(F)(F)F)c3)c3cncn3C)cc2c(Cl)c1CN1CCC(C(F)(F)F)CC1 (single isomer, unassigned) [Example 100b, (4-Chloro-2-methoxy-3-((4-(trifluoromethyl)piperidin-1-yl)methyl)quinolin-6-yl)(1-methyl-1H-imidazol-5-yl)(2-(trifluoromethyl)pyridin-4-yl)methanol]
22 | 90 | – | COc1nc2ccc(C(O)(c3ccc(C)nc3C)c3cnnn3C)cc2c(Cl)c1CN1CCC(C(F)(F)F)CC1 (single isomer, unassigned) [Example 103b, (4-Chloro-2-methoxy-3-((4-(trifluoromethyl)piperidin-1-yl)methyl)quinolin-6-yl)(2,6-dimethylpyridin-3-yl)(1-methyl-1H-1,2,3-triazol-5-yl)methanol]
23 | – | 99 | COc1nc2ccc(C(O)(c3ccc(C)nc3C)c3cnnn3C)cc2c(Cl)c1CN1CCC(C(F)(F)F)CC1 (single isomer, unassigned) [Example 103c, (4-Chloro-2-methoxy-3-((4-(trifluoromethyl)piperidin-1-yl)methyl)quinolin-6-yl)(2,6-dimethylpyridin-3-yl)(1-methyl-1H-1,2,3-triazol-5-yl)methanol]
24 | – | 33 | COc1nc2ccc(C(O)(c3ccc(C)nc3C)c3cnnn3C)cc2c(Cl)c1CN1CCC(n2cccn2)CC1 (single isomer, unassigned) [Example 105b, (3-((4-(1H-Pyrazol-1-yl)piperidin-1-yl)methyl)-4-chloro-2-methoxyquinolin-6-yl)(2,6-dimethylpyridin-3-yl)(1-methyl-1H-1,2,3-triazol-5-yl)methanol]
25 | – | 87 | COc1nc2ccc(C(O)(c3ccc(C)nc3C)c3cnnn3C)cc2c(Cl)c1CN1CCC(n2cccn2)CC1 (single isomer, unassigned) [Example 105c, (3-((4-(1H-Pyrazol-1-yl)piperidin-1-yl)methyl)-4-chloro-2-methoxyquinolin-6-yl)(2,6-dimethylpyridin-3-yl)(1-methyl-1H-1,2,3-triazol-5-yl)methanol]

From patent publication US10201546B2, “Quinolinyl modulators of RORγt” (Janssen Pharmaceutica NV, priority 2013, dated 2019)
